# pEC50: −log10 of the molar value.
# Target: T1, ABCB1 (Homo sapiens, UniProt P08183)
# T1 construct: ABCB1 transporter in membrane vesicles of High Five insect cells
# Test: vanadate-sensitive ATPase stimulation in ABCB1 membrane vesicles ([…] maximum); also raised [3H]-paclitaxel accumulation in SW620/Ad300 cells
# Type: biochemical
# T1 sequence (P08183 whole entry): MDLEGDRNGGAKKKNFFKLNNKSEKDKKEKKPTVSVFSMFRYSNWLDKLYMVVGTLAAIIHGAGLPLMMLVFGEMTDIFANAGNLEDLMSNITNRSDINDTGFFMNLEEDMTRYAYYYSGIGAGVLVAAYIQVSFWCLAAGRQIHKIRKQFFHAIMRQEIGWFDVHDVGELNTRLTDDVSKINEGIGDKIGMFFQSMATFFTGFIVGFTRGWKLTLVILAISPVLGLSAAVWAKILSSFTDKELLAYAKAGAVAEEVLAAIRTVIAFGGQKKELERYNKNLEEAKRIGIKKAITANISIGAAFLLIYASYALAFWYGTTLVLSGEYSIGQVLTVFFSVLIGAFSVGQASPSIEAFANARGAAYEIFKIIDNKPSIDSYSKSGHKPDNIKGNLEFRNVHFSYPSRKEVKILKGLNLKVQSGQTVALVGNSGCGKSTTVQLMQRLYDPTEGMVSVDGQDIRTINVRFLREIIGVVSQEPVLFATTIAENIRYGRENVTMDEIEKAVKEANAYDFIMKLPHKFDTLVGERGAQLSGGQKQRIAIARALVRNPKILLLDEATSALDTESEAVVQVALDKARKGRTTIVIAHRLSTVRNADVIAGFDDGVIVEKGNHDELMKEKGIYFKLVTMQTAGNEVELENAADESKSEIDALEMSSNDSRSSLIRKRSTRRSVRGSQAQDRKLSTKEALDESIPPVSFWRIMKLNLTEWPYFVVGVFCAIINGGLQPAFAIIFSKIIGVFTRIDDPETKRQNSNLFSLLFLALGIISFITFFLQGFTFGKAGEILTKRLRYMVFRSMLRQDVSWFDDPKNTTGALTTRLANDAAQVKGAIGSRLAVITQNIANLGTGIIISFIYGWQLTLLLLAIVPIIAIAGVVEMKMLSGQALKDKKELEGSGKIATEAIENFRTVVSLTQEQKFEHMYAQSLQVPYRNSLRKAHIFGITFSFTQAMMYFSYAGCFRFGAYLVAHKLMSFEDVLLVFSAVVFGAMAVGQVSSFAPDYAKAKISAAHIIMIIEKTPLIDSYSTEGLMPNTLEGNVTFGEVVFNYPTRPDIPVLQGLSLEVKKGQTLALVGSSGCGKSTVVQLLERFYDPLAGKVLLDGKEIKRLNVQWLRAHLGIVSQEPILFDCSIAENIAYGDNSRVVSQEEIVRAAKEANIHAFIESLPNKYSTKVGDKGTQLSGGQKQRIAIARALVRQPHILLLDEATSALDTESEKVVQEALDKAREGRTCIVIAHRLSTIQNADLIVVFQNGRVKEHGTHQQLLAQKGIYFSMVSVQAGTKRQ
smiles,measurement,value
CNC(=O)CN1CCC(Oc2cc3c(Nc4cccc(Cl)c4F)ncnc3cc2OC)CC1 [sapitinib],pEC50,5.28
